Data from ChEMBL document CHEMBL2163286, “1,2,3,4-tetrahydroquinoline-based selective human neuronal nitric oxide synthase (nNOS) inhibitors: lead optimization studies resulting in the identification of N-(1-(2-(methylamino)ethyl)-1,2,3,4-tetrahydroquinolin-6-yl)thiophene-2-carboximidamide as a preclinical development candidate” (J Med Chem, 2012).
pIC50: −log10 of the molar value.

Tests used:
[1] = target: Voltage-gated inwardly rectifying potassium channel KCNH2 (Homo sapiens, UniProt Q12809); test: Inhibition of human ERG expressed in HEK293 cells at -80 mV holding potential assessed as reduction in tail current amplitude by conventional patch clamp assay; format: cell-based
Voltage-gated inwardly rectifying potassium channel KCNH2, sequence (Q12809 whole entry): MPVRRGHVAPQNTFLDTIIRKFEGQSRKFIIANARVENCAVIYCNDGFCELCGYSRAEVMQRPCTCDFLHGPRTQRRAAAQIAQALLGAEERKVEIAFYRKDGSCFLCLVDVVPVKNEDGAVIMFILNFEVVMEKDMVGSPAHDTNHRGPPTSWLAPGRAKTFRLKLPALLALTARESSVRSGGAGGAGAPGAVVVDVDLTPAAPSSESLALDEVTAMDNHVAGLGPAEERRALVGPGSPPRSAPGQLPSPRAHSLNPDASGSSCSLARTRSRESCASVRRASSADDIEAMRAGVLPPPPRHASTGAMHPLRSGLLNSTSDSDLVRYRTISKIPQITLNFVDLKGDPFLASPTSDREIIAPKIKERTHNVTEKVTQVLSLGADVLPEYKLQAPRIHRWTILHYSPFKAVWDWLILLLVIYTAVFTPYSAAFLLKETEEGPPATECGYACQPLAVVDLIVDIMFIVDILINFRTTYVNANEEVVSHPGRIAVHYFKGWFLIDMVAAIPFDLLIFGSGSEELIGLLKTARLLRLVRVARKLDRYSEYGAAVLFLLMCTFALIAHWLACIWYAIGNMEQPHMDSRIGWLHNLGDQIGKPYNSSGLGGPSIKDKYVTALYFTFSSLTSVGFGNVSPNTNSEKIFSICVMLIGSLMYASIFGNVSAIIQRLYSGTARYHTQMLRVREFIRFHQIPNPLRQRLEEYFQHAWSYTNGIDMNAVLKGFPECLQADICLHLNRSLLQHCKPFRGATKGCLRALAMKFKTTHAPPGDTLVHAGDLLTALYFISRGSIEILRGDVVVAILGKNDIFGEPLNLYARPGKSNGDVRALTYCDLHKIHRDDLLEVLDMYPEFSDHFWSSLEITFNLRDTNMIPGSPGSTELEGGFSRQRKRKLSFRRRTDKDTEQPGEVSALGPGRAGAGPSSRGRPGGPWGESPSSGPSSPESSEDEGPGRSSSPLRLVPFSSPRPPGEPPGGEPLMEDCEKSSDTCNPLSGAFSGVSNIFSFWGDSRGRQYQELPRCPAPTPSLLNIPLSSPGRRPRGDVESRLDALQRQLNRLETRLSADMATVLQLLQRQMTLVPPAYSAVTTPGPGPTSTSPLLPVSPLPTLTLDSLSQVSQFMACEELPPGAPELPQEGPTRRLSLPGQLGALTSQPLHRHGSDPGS

[2] = target: Nitric oxide synthase, inducible (Homo sapiens, UniProt P35228); test: Inhibition of human recombinant iNOS expressed in Sf9 cells assessed as reduction in conversion of [3H]L-arginine to [3H]L-citrulline preincubated for 15 mins by radiometric method
Nitric oxide synthase, inducible, sequence (P35228 whole entry): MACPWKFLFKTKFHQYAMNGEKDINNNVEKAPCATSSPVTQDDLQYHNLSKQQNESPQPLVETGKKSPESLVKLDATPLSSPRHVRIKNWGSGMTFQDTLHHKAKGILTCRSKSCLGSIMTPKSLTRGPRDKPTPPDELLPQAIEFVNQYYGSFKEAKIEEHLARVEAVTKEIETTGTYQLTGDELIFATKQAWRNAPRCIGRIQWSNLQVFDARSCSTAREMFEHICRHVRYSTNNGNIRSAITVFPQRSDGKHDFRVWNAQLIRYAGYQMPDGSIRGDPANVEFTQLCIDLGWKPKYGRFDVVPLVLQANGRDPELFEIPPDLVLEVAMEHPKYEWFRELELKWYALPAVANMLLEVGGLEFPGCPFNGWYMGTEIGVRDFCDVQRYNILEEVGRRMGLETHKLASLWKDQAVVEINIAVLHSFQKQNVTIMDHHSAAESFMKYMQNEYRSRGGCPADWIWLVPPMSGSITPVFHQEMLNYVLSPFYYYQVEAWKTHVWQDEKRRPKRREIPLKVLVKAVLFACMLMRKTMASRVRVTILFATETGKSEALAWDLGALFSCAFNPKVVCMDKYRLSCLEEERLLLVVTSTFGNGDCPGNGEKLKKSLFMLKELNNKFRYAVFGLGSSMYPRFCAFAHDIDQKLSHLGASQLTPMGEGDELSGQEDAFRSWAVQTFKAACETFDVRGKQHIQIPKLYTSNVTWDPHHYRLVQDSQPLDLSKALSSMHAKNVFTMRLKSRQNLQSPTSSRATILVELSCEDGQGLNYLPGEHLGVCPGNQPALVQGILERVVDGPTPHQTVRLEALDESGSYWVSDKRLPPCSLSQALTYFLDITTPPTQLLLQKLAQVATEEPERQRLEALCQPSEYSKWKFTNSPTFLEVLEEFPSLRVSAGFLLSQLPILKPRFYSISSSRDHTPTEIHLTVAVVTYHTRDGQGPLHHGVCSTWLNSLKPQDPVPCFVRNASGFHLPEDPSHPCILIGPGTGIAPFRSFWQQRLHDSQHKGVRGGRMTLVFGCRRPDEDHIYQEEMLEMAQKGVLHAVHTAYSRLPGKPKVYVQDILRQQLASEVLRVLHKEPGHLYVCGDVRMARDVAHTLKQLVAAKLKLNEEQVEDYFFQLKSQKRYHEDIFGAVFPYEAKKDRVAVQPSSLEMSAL

Nitric oxide synthase 1 = Nitric oxide synthase 1 (Homo sapiens, UniProt P29475); test: Inhibition of human nNOS expressed in Sf9 cells assessed as reduction in conversion of [3H]L-arginine to [3H]L-citrulline preincubated for 15 mins by radiometric method
Nitric oxide synthase 1, sequence (P29475 whole entry): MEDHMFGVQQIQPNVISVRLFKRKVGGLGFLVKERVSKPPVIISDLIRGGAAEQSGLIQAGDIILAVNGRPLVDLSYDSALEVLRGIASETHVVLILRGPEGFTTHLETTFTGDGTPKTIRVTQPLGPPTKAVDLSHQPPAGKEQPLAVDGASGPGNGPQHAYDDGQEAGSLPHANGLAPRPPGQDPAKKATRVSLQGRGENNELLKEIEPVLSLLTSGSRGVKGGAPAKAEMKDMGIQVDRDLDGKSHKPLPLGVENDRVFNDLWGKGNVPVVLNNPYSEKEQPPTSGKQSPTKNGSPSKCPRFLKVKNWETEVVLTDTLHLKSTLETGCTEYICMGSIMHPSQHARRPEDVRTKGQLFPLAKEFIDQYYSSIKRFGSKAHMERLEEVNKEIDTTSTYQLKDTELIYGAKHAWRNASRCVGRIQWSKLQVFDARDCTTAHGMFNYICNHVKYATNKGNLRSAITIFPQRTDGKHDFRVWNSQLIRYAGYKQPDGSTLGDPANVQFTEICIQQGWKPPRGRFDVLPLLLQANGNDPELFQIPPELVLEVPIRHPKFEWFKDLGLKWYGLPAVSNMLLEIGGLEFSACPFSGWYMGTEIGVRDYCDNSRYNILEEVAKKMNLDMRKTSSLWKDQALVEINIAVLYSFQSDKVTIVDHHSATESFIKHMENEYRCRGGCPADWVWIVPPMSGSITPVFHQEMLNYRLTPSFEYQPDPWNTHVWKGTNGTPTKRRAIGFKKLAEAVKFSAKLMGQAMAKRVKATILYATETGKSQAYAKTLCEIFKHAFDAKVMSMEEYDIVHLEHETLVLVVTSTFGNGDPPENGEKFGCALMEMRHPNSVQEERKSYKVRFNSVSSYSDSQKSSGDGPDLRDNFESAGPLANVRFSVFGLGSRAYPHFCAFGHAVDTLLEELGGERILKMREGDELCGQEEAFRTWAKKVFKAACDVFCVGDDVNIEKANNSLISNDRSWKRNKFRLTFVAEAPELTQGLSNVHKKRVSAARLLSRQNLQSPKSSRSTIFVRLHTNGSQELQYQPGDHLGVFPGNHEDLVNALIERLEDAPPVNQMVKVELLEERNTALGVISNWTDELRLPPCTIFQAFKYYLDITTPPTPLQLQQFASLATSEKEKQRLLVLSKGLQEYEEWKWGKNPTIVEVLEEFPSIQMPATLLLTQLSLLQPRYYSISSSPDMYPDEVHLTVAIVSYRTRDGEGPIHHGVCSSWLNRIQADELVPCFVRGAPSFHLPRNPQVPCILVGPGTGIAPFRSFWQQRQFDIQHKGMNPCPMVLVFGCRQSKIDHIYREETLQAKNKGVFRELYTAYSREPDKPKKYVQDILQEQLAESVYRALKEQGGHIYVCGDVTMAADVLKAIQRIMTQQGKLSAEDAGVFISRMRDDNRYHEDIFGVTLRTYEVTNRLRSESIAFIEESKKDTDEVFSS

| Structure (SMILES) | pIC50 [1] | pIC50 [2] | pIC50 (Nitric oxide synthase 1) |
| --- | --- | --- | --- |
| CCN(C)CCN1CCCc2cc(NC(=N)c3cccs3)ccc21 | 5.35 | < 4.00 | 7.01 |
| N=C(Nc1ccc2c(c1)CCCN2C1CCNC1)c1cccs1 (racemic) | < 4.52 | – | – |
| CNCCN1CCCc2cc(NC(=N)c3cccs3)ccc21 | – | – | 6.75 |
